“Also recorded” adds a separate entry of the source.

For test [1], the system named is mouse embryonic skin fibroblasts (MSFs). Kind of test: Live imaging of nuclear area and chromatin condensation (H2b-eGFP) during cyclic stretch routines. The class given is cell-based. Conditions: for change in nuclear area / chromatin condensation (H2b histogram kurtosis and skewness): BAPTA 50 μM, KN-62 10 μM, cytochalasin D 2 μM. The method, then:
(§1) Transgenic mice harboring a fluorescence tag at the H2b histone—B6.Cg-Tg (HIST1H2BB/EGFP) 1 Pa/J, Stock No: 006069—were obtained from Jackson Laboratory (Bar Harbor, Me.). All animal procedures were performed following Institutional Animal Care & Use Committee approval. Skin from embryonic mice was harvested 18.5 days post-conception. Skin was minced, washed with Hank's Balanced Salt Solution (HBSS), and incubated in 35 mm dishes in shallow medium (˜0.5 mL) to avoid floating of the tissue for 4 days, during which fibroblasts extruded from the tissue. After 4 days, remaining tissue was removed (picked out with a pipette), and extruded cells in the dish were detached using TrypLE (Gibco, Gaithersburg, Md.) and expanded in culture for another 2 days before being seeded into stretch chambers for experiments. The inner well of assembled stretch chambers was ozone activated for 30 s via corona arc discharge (BD-20; Electro-Technic Products) and coated with 50 μg/mL bovine plasma fibronectin (F1141; Sigma-Aldrich) in a total volume of 250 μL overnight at 37° C. Mouse embryonic skin fibroblasts (MSFs) were seeded into stretch chambers at a density of 80,000 cells/cm′ 1 day before experiments. MSFs were extruded and cultured in DMEM (ATCC, Manassas, Va.) containing 10% fetal bovine serum (Gibco), 1% penicillin-streptomycin (Gibco), and 25 mM HEPES (Gibco) at 37° C. and 5% CO2. To inhibit calcium signaling, MSFs were incubated with 50 μM BAPTA (A4926; Sigma-Aldrich) or 10 μM KN-62 (12142; Sigma-Aldrich) 1 h before cyclic strain experiments. To disrupt actin polymerization, MSFs were incubated with 2 μM cytochalasin D (C8273; Sigma-Aldrich) 30 min before experiments. Vehicle controls were incubated with 0.001% DMSO (276855; Sigma-Aldrich) 1 h before experiments. To test the use of chromatin dyes, cells were stained with Hoechst (NucBlue Live ReadyProbes; Life Technologies) 30 min before experiments. Stretch experiments were performed at 25° C. (room temperature) under humidified conditions.
The stretch device was mounted on an inverted epi-fluorescence microscope (Ti-Eclipse; Nikon) with a 60× water immersion objective (0.26 μm/pixel) and an EMCCD camera (iXonEM+; Andor Technology). The surrounding of the microscope was humidified to prevent the water on the objective from evaporating during the 1 h experiment. Oil immersion is also possible, but water immersion provided better image quality with the silicone membranes used.
Using MATLAB, a sinusoidal control signal (1 Hz) was sent to the Arduino controller, resulting in a cyclic stretch routine of the membrane (FIG. 1C), with peak strains set to 5% (−0.1 V), 10% (−0.9 V), and 20% (−2.25 V) as determined by the calibration curve. Cells were cyclically stretched for 30 min, followed by 30 min of rest, during which 2 μm z-stacks (0.5 μm steps) of nuclei were acquired. During the rest period, cells experienced no stretch but a constant magnetic field using the offset Arduino input voltage (0.8 V) that keeps the piston suspended at 0% stretch. For acquisition, the cyclic stretch routine was paused for 1 min to allow for a steady imaging plane and fine readjustments in z-position due to water evaporation. Unstretched control cells (0%) were seeded into stretch chambers but kept stationary on the microscope without any magnetic field applied. Unstretched magnetic control cells (MAG) were placed stationary inside the coil without the piston, and a magnetic field corresponding to a 20% sinusoidal stretch routine was applied.
A custom MATLAB code was used to track nuclear outlines via H2b-eGFP and to generate H2b intensity histograms during an image series, from which changes in nuclear area, H2b skewness, and H2b kurtosis were calculated.

For test [2] the test system is unchanged. As to the kind of experiment: Perinuclear F-actin and γH2a.x staining after cyclic stretch routines. Conditions: BAPTA 50 μM, KN-62 10 μM, cytochalasin D 2 μM. The class given is cell-based. The protocol:
as §1
MSFs were fixed in 4% ice-cold paraformaldehyde (PFA) for 10 min, permeabilized with 1% Triton-X100 in phosphate-buffered saline for 15, min and blocked with 10% NGS, 1% bovine serum albumin in 0.1% PBT (0.1% Tween-20 in phosphate-buffered saline) for 60 min. Primary incubation of Phospho-Histone H2A.X Ser139 (9718S; Cell Signaling Technology, Danvers, Mass.) was performed at 4° C. overnight in 0.1% PBT containing 1% bovine serum albumin at 1:400. Secondary incubation of goat anti-rabbit IgG-AF546 (Life Technologies) was performed in primary incubation buffer for 45 min at 22° C. at a dilution of 1:500. F-actin was counterstained with phalloidin-CF405 (Biotium, Fremont, Calif.) for 30 min at a dilution of 1:30. Staining was performed in containment wells. After staining, membranes were cut out of the containment well using a circular punch and mounted cell-side up onto #1.0 glass slides with ProLong Diamond Antifade Mountant (Life Technologies). Image stacks (5 μm, 1 μm step) of multiple nuclei in a 318×318 μm area were acquired on a Nikon MR confocal microscope using a 40× oil immersion objective (0.31 μm/pixel). A custom MATLAB code was used to track nuclear outlines via H2b-eGFP and to quantify perinuclear F-actin intensities and γH2a.x foci in projected image stacks. Only the projected F-actin within the nuclear outline (apical perinuclear F-actin) was counted in this analysis. To account for variations in staining and imaging (the same imaging settings were used), fluorescence channels were histogram normalized. Perinuclear F-actin intensities were calculated as the sum of normalized phalloidin intensities within a nuclear border. DNA damage foci were determined by detecting 2D peaks in the normalized γH2a.x channel using the MATLAB script FastPeakFind (v. 1.7).

Where [3] appears, read: 30 min 5% cyclic strain, 1 Hz, vs NT/VH cells (area increases).
The mark [4] stands for this setting: 30 min 5% cyclic strain, 1 Hz, vs NT/VH cells (condensation decreases).
Setting [5] is: 30 min 20% cyclic strain, 1 Hz, vs NT/VH cells (area decreases).
The mark [6] stands for this setting: 30 min 20% cyclic strain, 1 Hz, vs NT/VH cells (condensation increases).
The mark [7] stands for this setting: static magnetic-field-only routine (MAG), no stretch.
[8] abbreviates: after 30 min 5% cyclic stretch, vs NT or VH control cells.
[9] abbreviates: after 30 min 20% cyclic stretch, vs NT or VH control cells.
The mark [10] stands for this setting: 20% cyclic strain 30 min, Hoechst-stained vs unstained (H2b) nuclei.

With `O=C(O)CN(CC(=O)O)c1ccccc1OCCOc1ccccc1N(CC(=O)O)CC(=O)O` [BAPTA], the “change in nuclear area” value in test [1] (setting [3]) was “abrogated the increase in nuclear area”; in test [1] (setting [5]), “only minorly effected”; in test [1] (30 min 20% cyclic strain, 1 Hz, vs NT/VH cells (area decreases), listed as BP), “had no effect”; in test [1] (setting [7]), “interfered with the slight decrease in nuclear area”. In addition, the “chromatin condensation (H2b histogram kurtosis and skewness)” value was “abrogated the increase in nuclear area and decrease in chromatin condensation” in test [1] (setting [4]); “only minorly effected” in test [1] (setting [6]); “had no effect” in test [1] (30 min 20% cyclic strain, 1 Hz, vs NT/VH cells (condensation increases), listed as BP); “interfered with the slight decrease in nuclear area and increase in chromatin condensation” in test [1] (setting [7]). Moreover, the “number of γH2a.x foci per nucleus (DNA damage, double-strand breaks)” value in test [2] (setting [8]) is given as “showed no difference”; in test [2] (setting [9]), “showed no difference”; in test [2] (static magnetic-field-only controls (MAG), listed as BP), “increased DNA damage”. Further, the “perinuclear F-actin intensities” value in test [2] (after 30 min 5% cyclic stretch, vs NT or VH control cells, listed as BP) is reported as “abrogated increases; also recorded: abrogated the increase”.

Turning to `CCOc1ccc(-c2nc3ccc(-c4nc5ccc(N6CCN(C)CC6)cc5[nH]4)cc3[nH]2)cc1` [Hoechst, Hoechst 33342], in test [1] (setting [10]), the “change in nuclear area during stretch” value was “reduction in nuclear area similar to unstained nuclei”; the “chromatin condensation (histogram kurtosis and skewness) during stretch” value is reported as “reduced chromatin condensation; also recorded: Reduced chromatin compaction”. In addition, the “change in nuclear area during rest” value in test [1] (30 min rest after 20% cyclic strain, Hoechst-stained vs unstained (H2b) nuclei) is “no regain in nuclear areas; also recorded: no recovery; also recorded: no relaxation”.

As to `CN([C@@H](Cc1ccc(OS(=O)(=O)c2cccc3cnccc23)cc1)C(=O)N1CCN(c2ccccc2)CC1)S(=O)(=O)c1cccc2cnccc12` [KN-62], the “change in nuclear area” value is given as “abrogated the increase in nuclear area” in test [1] (setting [3]); “only minorly effected” in test [1] (setting [5]); “had no effect” in test [1] (30 min 20% cyclic strain, 1 Hz, vs NT/VH cells (area decreases), listed as KN); “interfered with the slight decrease in nuclear area” in test [1] (setting [7]). For the same molecule, the “chromatin condensation (H2b histogram kurtosis and skewness)” value is “abrogated the increase in nuclear area and decrease in chromatin condensation” in test [1] (setting [4]); “only minorly effected” in test [1] (setting [6]); “had no effect” in test [1] (30 min 20% cyclic strain, 1 Hz, vs NT/VH cells (condensation increases), listed as KN); “interfered with the slight decrease in nuclear area and increase in chromatin condensation” in test [1] (setting [7]). In addition, the “number of γH2a.x foci per nucleus (DNA damage, double-strand breaks)” value in test [2] (setting [8]) was “showed no difference”; in test [2] (setting [9]) it was “showed no difference”; in test [2] (static magnetic-field-only controls (MAG), listed as KN), “increased DNA damage”. Moreover, the “perinuclear F-actin intensities” value in test [2] (after 30 min 5% cyclic stretch, vs NT or VH control cells, listed as KN) is given as “abrogated increases; also recorded: abrogated the increase”.

The record behind these values is US11360010B1, “Methods and device for controlled cell stretch and imaging” (The Regents of the University of Colorado, a body, priority 2019, dated 2022).
